Where two headings read alike, the source gives them in different places.
How the values were obtained:
Type in all cases: biochemical
[1] = target: 320 wild-type protein kinases (Homo sapiens, UniProt P17252); details: PKC-alpha, singlicate
Excerpt: (§1) Table S4. Profiling of two compounds at two concentrations against 320 wild-type protein kinases; singlicate measurement; Residual activities (% of control).

[2] = target: 320 wild-type protein kinases (Homo sapiens, UniProt Q00536); details: CDK16/CycY, singlicate
Sequence of 320 wild-type protein kinases (Homo sapiens, UniProt Q00536) (Q00536 whole entry): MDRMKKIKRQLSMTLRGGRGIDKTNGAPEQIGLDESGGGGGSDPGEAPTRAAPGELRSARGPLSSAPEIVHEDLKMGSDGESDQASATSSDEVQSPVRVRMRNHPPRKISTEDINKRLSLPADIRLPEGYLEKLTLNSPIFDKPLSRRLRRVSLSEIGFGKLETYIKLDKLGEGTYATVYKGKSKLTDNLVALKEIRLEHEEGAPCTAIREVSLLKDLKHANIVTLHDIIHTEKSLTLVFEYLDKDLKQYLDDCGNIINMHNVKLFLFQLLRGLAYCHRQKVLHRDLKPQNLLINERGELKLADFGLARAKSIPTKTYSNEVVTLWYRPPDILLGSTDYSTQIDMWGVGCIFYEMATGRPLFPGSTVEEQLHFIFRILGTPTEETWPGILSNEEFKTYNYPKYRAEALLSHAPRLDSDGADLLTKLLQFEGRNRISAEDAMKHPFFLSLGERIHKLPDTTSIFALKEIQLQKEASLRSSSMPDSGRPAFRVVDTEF
Excerpt: as §1

[3] = target: T1, 320 wild-type protein kinases (Homo sapiens, UniProt P25098); details: singlicate
T1 sequence (P25098 1-689): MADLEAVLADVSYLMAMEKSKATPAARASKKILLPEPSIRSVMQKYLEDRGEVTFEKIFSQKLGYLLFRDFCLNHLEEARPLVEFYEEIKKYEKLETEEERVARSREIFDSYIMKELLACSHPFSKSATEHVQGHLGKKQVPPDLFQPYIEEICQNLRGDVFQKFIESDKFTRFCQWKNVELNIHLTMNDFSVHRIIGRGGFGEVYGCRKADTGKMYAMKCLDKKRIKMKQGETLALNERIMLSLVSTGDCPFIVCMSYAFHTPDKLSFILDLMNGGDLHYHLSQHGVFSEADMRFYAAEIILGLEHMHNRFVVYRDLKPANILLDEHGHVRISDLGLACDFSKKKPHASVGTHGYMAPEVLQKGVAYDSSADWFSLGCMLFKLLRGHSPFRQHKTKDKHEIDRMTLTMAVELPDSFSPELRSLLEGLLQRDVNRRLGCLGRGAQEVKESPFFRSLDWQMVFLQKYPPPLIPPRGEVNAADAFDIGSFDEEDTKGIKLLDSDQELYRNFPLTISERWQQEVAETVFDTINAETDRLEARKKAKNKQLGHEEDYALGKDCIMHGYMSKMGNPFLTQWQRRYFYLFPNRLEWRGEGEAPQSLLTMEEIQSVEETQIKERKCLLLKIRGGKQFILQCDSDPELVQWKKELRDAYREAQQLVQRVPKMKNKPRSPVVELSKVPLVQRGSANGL
Excerpt: as §1

[4] = target: 320 wild-type protein kinases (Homo sapiens, UniProt P23458); details: JAK1 aa583-1154 wt, singlicate
Sequence of 320 wild-type protein kinases (Homo sapiens, UniProt P23458) (P23458 whole entry, the tested form may be a part): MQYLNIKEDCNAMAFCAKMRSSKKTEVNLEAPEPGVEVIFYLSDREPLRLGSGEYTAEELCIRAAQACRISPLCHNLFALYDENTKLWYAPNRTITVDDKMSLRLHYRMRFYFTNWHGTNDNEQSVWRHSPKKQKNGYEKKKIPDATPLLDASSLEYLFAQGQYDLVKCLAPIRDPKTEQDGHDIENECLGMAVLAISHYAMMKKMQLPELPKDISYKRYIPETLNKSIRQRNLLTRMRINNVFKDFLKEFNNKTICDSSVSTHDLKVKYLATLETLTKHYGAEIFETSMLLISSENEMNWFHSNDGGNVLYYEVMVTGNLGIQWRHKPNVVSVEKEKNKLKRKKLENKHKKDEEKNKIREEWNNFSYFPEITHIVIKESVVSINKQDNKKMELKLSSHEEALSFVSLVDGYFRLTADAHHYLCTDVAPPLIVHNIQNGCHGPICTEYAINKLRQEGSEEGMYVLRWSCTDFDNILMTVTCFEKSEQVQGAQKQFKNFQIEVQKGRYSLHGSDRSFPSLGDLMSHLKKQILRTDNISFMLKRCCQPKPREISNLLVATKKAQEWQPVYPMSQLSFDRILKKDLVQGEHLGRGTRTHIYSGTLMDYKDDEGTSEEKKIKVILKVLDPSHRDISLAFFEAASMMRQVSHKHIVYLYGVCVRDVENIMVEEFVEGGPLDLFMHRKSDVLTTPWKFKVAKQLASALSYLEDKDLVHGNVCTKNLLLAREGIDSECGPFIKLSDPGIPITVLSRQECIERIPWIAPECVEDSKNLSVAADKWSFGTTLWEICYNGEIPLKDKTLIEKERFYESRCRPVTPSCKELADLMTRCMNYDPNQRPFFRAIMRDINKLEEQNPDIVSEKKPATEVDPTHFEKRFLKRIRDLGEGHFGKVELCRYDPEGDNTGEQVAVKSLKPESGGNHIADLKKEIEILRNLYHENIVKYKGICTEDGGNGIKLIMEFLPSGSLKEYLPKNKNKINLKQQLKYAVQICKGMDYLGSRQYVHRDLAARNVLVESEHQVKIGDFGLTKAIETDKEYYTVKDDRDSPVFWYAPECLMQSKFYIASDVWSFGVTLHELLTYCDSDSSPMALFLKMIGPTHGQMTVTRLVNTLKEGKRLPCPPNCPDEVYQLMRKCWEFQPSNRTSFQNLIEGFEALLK
Excerpt: as §1

[5] = target: 320 wild-type protein kinases (Homo sapiens, UniProt Q13131); details: singlicate
Sequence of 320 wild-type protein kinases (Homo sapiens, UniProt Q13131) (Q13131 whole entry): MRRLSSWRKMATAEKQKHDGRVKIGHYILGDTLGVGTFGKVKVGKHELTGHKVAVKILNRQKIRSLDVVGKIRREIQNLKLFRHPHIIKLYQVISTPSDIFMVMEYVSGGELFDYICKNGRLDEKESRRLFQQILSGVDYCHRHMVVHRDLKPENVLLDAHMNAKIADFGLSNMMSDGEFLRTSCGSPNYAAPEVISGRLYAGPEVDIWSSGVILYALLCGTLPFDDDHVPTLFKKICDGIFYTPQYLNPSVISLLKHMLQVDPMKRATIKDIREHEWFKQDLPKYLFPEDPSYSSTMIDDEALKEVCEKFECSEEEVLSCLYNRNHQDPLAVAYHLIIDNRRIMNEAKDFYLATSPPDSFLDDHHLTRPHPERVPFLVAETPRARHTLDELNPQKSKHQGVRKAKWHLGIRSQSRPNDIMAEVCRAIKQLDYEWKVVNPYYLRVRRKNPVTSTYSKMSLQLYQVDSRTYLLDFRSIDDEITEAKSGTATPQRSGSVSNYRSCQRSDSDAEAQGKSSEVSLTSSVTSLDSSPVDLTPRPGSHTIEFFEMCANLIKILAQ
Excerpt: as §1

[6] = target: 320 wild-type protein kinases (Homo sapiens, UniProt P11802); details: singlicate
Sequence of 320 wild-type protein kinases (Homo sapiens, UniProt P11802) (P11802 whole entry): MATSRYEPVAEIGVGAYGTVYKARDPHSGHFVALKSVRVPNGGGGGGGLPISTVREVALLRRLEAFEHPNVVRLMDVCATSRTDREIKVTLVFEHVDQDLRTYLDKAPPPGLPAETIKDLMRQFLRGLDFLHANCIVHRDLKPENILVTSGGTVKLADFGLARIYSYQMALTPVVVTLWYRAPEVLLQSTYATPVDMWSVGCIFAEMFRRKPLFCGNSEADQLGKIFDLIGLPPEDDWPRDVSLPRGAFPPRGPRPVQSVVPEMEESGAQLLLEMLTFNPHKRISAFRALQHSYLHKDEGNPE
Excerpt: as §1

[7] = target: T2, 320 wild-type protein kinases (Homo sapiens, UniProt Q13043); details: singlicate
T2 sequence (Q13043 1-487): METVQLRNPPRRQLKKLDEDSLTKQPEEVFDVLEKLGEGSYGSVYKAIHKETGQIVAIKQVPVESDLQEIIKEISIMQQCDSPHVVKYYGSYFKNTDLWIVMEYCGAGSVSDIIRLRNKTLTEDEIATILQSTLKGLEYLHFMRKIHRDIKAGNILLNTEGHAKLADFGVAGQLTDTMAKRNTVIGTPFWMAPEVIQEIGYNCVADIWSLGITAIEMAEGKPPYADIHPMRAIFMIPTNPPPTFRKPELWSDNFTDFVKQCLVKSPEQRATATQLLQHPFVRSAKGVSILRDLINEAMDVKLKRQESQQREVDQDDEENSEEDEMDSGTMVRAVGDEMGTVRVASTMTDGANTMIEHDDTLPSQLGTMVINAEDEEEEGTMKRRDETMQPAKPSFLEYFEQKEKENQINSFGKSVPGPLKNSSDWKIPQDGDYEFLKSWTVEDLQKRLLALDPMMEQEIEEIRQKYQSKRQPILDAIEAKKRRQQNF
Excerpt: as §1

[8] = target: T3, 320 wild-type protein kinases (Homo sapiens, UniProt Q8TD19); details: singlicate
T3 sequence (Q8TD19 1-979): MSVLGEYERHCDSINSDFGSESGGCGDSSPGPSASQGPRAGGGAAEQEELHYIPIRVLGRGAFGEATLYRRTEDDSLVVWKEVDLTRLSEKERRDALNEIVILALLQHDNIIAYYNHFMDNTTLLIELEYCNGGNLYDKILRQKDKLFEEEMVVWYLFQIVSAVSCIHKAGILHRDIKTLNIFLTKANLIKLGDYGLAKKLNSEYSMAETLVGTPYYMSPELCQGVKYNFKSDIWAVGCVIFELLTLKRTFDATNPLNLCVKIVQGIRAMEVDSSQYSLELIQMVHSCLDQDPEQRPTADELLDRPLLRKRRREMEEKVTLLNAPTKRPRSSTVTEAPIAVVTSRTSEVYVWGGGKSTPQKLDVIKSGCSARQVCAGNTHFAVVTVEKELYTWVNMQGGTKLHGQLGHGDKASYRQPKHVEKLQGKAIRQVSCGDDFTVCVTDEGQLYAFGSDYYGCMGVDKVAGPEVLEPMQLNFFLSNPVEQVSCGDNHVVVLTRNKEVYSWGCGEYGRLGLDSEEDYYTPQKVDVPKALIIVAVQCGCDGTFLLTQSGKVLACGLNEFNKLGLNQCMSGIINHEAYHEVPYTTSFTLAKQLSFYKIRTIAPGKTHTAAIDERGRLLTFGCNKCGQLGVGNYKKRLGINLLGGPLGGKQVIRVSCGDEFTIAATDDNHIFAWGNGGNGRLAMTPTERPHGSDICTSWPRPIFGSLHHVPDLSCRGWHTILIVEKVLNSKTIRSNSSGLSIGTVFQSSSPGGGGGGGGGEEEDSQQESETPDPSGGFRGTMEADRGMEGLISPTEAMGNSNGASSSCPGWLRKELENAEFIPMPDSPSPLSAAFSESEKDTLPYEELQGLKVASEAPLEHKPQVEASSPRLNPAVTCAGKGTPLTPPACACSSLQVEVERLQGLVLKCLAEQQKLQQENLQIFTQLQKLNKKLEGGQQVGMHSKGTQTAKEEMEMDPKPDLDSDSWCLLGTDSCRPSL
Excerpt: as §1

Structure (SMILES)	Residual activity ([1]; 1.0E-06 M)	Residual activity ([1]; 1.0E-07 M)	Residual activity ([2]; 1.0E-06 M)	Residual activity ([2]; 1.0E-07 M)	Residual activity ([3]; GRK2, 1.0E-06 M)	Residual activity ([3]; GRK2, 1.0E-07 M)	Residual activity ([4]; 1.0E-06 M)	Residual activity ([4]; 1.0E-07 M)	Residual activity ([5]; AMPK-alpha1 aa1-550, 1.0E-06 M)	Residual activity ([5]; AMPK-alpha1 aa1-550, 1.0E-07 M)	Residual activity ([6]; CDK4/CycD1, 1.0E-06 M)	Residual activity ([6]; CDK4/CycD1, 1.0E-07 M)	Residual activity ([6]; CDK4/CycD3, 1.0E-06 M)	Residual activity ([6]; CDK4/CycD3, 1.0E-07 M)	Residual activity ([7]; MST1, 1.0E-06 M)	Residual activity ([7]; MST1, 1.0E-07 M)	Residual activity ([8]; NEK9, 1.0E-06 M)	Residual activity ([8]; NEK9, 1.0E-07 M)
C#Cc1cc(Nc2ncnc3cc(I)ccc23)ccc1Cl [Compound 41]	95 % of control	86 % of control	84 % of control	84 % of control	117 % of control	104 % of control	90 % of control	98 % of control	107 % of control	106 % of control	79 % of control	75 % of control	87 % of control	94 % of control	84 % of control	80 % of control	115 % of control	134 % of control
C#Cc1cc(Nc2ncnc3cc(OC)c(OC)cc23)ccc1Cl [Compound 45]	94 % of control	111 % of control	90 % of control	86 % of control	111 % of control	96 % of control	102 % of control	111 % of control	98 % of control	91 % of control	95 % of control	87 % of control	87 % of control	94 % of control	83 % of control	89 % of control	91 % of control	111 % of control

From article PMC9329436, “Optimization of the 4-anilinoquin(az)oline scaffold as epidermal growth factor receptor (EGFR) inhibitors for chordoma utilizing a toxicology profiling assay platform” (Scientific Reports, 2022)
